Patent US12612412B2, “Antiviral heterocyclic compounds” (Enanta Pharmaceuticals, Inc., priority 2021, dated 2026)

How the values were obtained:
[1] = tested on: HMPV clinical isolate TN/1501/A1; experiment: HMPV antiviral assay Method-B (clinical isolate TN/1501/A1 in LLC-MK2 cells, ATP-Lite readout); format: cell-based, Human metapneumovirus (HMPV); settings: human metapneumovirus, LLC-MK2, 144 h, hMPV WT1501 (clinical isolate TN/1501/A1), 6 days
Procedure, shortened: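 EC50 derived by four-parameter logistic fit of percent cell health, measured by ATP-Lite luminescence and normalised to virus-only and uninfected-cell controls. Compounds run in duplicate from 10 μM top, 3-fold, 10 points. Infection: LLC-MK2 cells, MOI 0.014, 2 μg/mL final TPCK-trypsin, serum-free, 6 days at 37° C.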

[2] = tested on: genotype A, "Long" strain RSV; experiment: RSV-A assay (CPE protection in Hep-2 cells, ATPlite readout); format: cell-based, Human respiratory syncytial virus (HRSV); settings: human respiratory syncytial virus, RSV-A Long strain, MOI 0.1, CPE protection, read-out: Human RSV-A (“Long”) EC50
Procedure, shortened: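 Compound effect on RSV-induced CPE: Hep-2 monolayers, MOI 0.1, duplicate 2-fold titrations, 5-day culture in 10% FBS DMEM. Readout is ATP-based luminescence, normalised to virus-only and no-virus controls, giving EC50.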

EC50 [1] | EC50 [2] | SMILES
> 500 nM | < 200 nM | COc1cc(C(=O)NC[C@](O)(c2cc3c(c(-c4csc(C(F)F)c4)n2)OC[C@]3(C)C(N)=O)C(F)(F)F)cc2cn(C3CC3)nc12 [Example 945]
< 500 nM | < 200 nM | COc1cc(C(=O)NC[C@](O)(c2cc3c(c(-c4csc(C(F)(F)F)c4)n2)OC[C@]3(C)C(N)=O)C(F)(F)F)cc2cn(C3CC3)nc12 [Example 946]
> 500 nM | < 200 nM | COc1cc(C(=O)NC[C@](O)(c2cc3c(c(-c4cc(C(F)F)cs4)n2)OC[C@]3(C)C(N)=O)C(F)(F)F)cc2cn(C3CC3)nc12 [Example 947]
> 500 nM | < 200 nM | COc1cc(C(=O)NC[C@](O)(c2cc3c(c(-c4ccc(C(F)F)s4)n2)OC[C@]3(C)C(N)=O)C(F)(F)F)cc2cn(C3CC3)nc12 [Example 948]
> 500 nM | < 200 nM | COc1cc(C(=O)NC[C@](O)(c2cc3c(c(-c4cnc(C(F)(F)F)s4)n2)OC[C@]3(C)C(N)=O)C(F)(F)F)cc2cn(C3CC3)nc12 [Example 950]
< 500 nM | < 200 nM | COc1cc(C(=O)NC[C@](O)(c2cc3c(c(-c4csc(C(F)(F)F)n4)n2)OC[C@]3(C)C(N)=O)C(F)(F)F)cc2cn(C3CC3)nc12 [Example 951]
< 500 nM | < 200 nM | COc1cc(C(=O)NC[C@](O)(c2cc3c(c(-c4cc(Cl)c(F)cc4F)n2)OC[C@]3(C)C(N)=O)C(F)(F)F)cc2cn(C3CC3)nc12 [Example 952]
> 500 nM | < 200 nM | COc1cc(C(=O)NC[C@@](O)(c2cc3c(c(-c4ccc5c(c4)OC(F)(F)C(F)(F)O5)n2)OC[C@]3(C)C(N)=O)C(F)(F)F)cc2cn(C3CC3)nc12 [Example 954]
> 500 nM | < 200 nM | COc1cc(C(=O)NC[C@@](O)(c2cc3c(c(-c4ccc(F)c(Br)c4F)n2)OC[C@]3(C)C(N)=O)C(F)(F)F)cc2cn(C3CC3)nc12 [Example 955]
< 500 nM | < 200 nM | COc1cc(C(=O)NC[C@](O)(c2cc3c(c(-c4ccc(F)c(Br)c4F)n2)OC[C@]3(C)C(N)=O)C(F)(F)F)cc2cn(C3CC3)nc12 [Example 956]
< 500 nM | < 200 nM | COc1cc(C(=O)NC[C@](O)(c2cc3c(c(-c4c(F)cc(Cl)cc4F)n2)OC[C@]3(C)C(N)=O)C(F)(F)F)cc2cn(C3CC3)nc12 [Example 961]
> 500 nM | > 200 nM | COc1cc(C(=O)NC[C@](O)(c2cc3c(c(-c4ccc5ccccc5c4)n2)OC[C@]3(C)C(N)=O)C(F)(F)F)cc2cn(C3CC3)nc12 [Example 965]
> 500 nM | > 200 nM | COc1cc(C(=O)NC[C@](O)(c2cc3c(c(-c4ccc5ncccc5c4)n2)OC[C@]3(C)C(N)=O)C(F)(F)F)cc2cn(C3CC3)nc12 [Example 966]
> 500 nM | > 200 nM | COc1cc(C(=O)NC[C@](O)(c2cc3c(c(-c4ccc5nc(C)ccc5c4)n2)OC[C@]3(C)C(N)=O)C(F)(F)F)cc2cn(C3CC3)nc12 [Example 967]
> 500 nM | > 200 nM | COc1cc(C(=O)NC[C@](O)(c2cc3c(c(-c4cccs4)n2)OC[C@]3(C)C(N)=O)C(F)(F)F)cc2cn(C3CC3)nc12 [Example 968]
> 500 nM | > 200 nM | COc1cc(C(=O)NC[C@](O)(c2cc3c(c(-c4ccc5[nH]ccc5c4)n2)OC[C@]3(C)C(N)=O)C(F)(F)F)cc2cn(C3CC3)nc12 [Example 969]
> 500 nM | > 200 nM | COc1cc(C(=O)NC[C@](O)(c2cc3c(c(-c4ccc5cc[nH]c5c4)n2)OC[C@]3(C)C(N)=O)C(F)(F)F)cc2cn(C3CC3)nc12 [Example 970]
> 500 nM | > 200 nM | COc1cc(C(=O)NC[C@](O)(c2cc3c(c(-c4ccc5c(c4)CC(=O)N5)n2)OC[C@]3(C)C(N)=O)C(F)(F)F)cc2cn(C3CC3)nc12 [Example 971]

EC50 [1] | EC50 [2] | SMILES
< 500 nM | < 200 nM | COc1cc(C(=O)NC[C@](O)(c2cc3c(c(-c4ccc(Cl)c(C(F)(F)F)c4)n2)OC[C@]3(C)C(N)=O)C(F)(F)F)cc2cn(C3CC3)nc12 [Example 972]
> 500 nM | > 200 nM | COc1cc(C(=O)NC[C@](O)(c2cc3c(c(-c4ccc5c(c4)OCCO5)n2)OC[C@]3(C)C(N)=O)C(F)(F)F)cc2cn(C3CC3)nc12 [Example 973]
< 500 nM | < 200 nM | COc1cc(C(=O)NC[C@](O)(c2cc3c(c(-c4ccc(F)c(C(F)(F)F)c4)n2)OC[C@]3(C)C(N)=O)C(F)(F)F)cc2cn(C3CC3)nc12 [Example 974]
< 500 nM | < 200 nM | COc1cc(C(=O)NC[C@](O)(c2cc3c(c(-c4cccc(Cl)c4)n2)OC[C@]3(C)C(N)=O)C(F)(F)F)cc2cn(C3CC3)nc12 [Example 975]
> 500 nM | < 200 nM | COc1cc(C(=O)NC[C@](O)(c2cc3c(c(-c4ccc(OC5CC5)cc4)n2)OC[C@]3(C)C(N)=O)C(F)(F)F)cc2cn(C3CC3)nc12 [Example 976]
> 500 nM | < 200 nM | COc1cc(C(=O)NC[C@](O)(c2cc3c(c(-c4cccc(C5CC5)c4)n2)OC[C@]3(C)C(N)=O)C(F)(F)F)cc2cn(C3CC3)nc12 [Example 977]
> 500 nM | < 200 nM | COc1cc(C(=O)NC[C@](O)(c2cc3c(c(-c4cccc(OC(F)(F)F)c4)n2)OC[C@]3(C)C(N)=O)C(F)(F)F)cc2cn(C3CC3)nc12 [Example 978]
< 500 nM | < 200 nM | COc1cc(C(=O)NC[C@](O)(c2cc3c(c(-c4ccc(OCC(F)F)cc4)n2)OC[C@]3(C)C(N)=O)C(F)(F)F)cc2cn(C3CC3)nc12 [Example 979]
< 500 nM | < 200 nM | COc1cc(C(=O)NC[C@](O)(c2cc3c(c(-c4ccc5c(c4)CC5)n2)OC[C@]3(C)C(N)=O)C(F)(F)F)cc2cn(C3CC3)nc12 [Example 980]
> 500 nM | > 200 nM | COc1cc(C(=O)NC[C@](O)(c2cc3c(c(-c4ccc(C5(C#N)CC5)cc4)n2)OC[C@]3(C)C(N)=O)C(F)(F)F)cc2cn(C3CC3)nc12 [Example 981]
> 500 nM | < 200 nM | C#Cc1ccc(-c2nc([C@@](O)(CNC(=O)c3cc(OC)c4nn(C5CC5)cc4c3)C(F)(F)F)cc3c2OC[C@]3(C)C(N)=O)cc1 [Example 982]
> 500 nM | < 200 nM | COc1cc(C(=O)NC[C@](O)(c2cc3c(c(-c4ccc(OC(F)(F)F)c(Cl)c4)n2)OC[C@]3(C)C(N)=O)C(F)(F)F)cc2cn(C3CC3)nc12 [Example 983]
> 500 nM | > 200 nM | COc1cc(C(=O)NC[C@](O)(c2cc3c(c(-c4ccc5c(c4)CCC5)n2)OC[C@]3(C)C(N)=O)C(F)(F)F)cc2cn(C3CC3)nc12 [Example 984]
< 500 nM | < 200 nM | COc1cc(C(=O)NC[C@](O)(c2cc3c(c(-c4ccc(F)c(F)c4)n2)OC[C@]3(C)C(N)=O)C(F)(F)F)cc2cn(C3CC3)nc12 [Example 985]
< 500 nM | < 200 nM | COc1cc(C(=O)NC[C@](O)(c2cc3c(c(-c4ccc(Cl)c(F)c4)n2)OC[C@]3(C)C(N)=O)C(F)(F)F)cc2cn(C3CC3)nc12 [Example 986]
< 500 nM | < 200 nM | COc1cc(C(=O)NC[C@](O)(c2cc3c(c(-c4ccc(Cl)cc4F)n2)OC[C@]3(C)C(N)=O)C(F)(F)F)cc2cn(C3CC3)nc12 [Example 987]
< 500 nM | < 200 nM | COc1cc(C(=O)NC[C@](O)(c2cc3c(c(-c4cccc(F)c4F)n2)OC[C@]3(C)C(N)=O)C(F)(F)F)cc2cn(C3CC3)nc12 [Example 988]
